In PubChem BioAssay AID1963981 (Molecular Pharmacology Branch, DTP, NCI, 2024):

Test system: 354836-022-R-J1-PDC multicell spheroid viability
Assay: Anticancer human tumor 354836-022-R-J1-PDC patient-derived head and neck squamous cell carcinoma cell line growth inhibition [PI3K]
Settings: for IC50: curve of first compound; for viability, T/C: stronger effect = lower value; active = viability on the fitted dose curve at most 10% of control; inactive = the rest
Summary of the method: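 Tumor cells were combined with HUVEC and MSCs into spheroids, then dosed with PI3K-inhibitor combinations over half-log ranges capped near clinical Cmax or 10 microM.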

[1] = second compound 0.0316 µM, first compound 0.0316 µM
[2] = second compound 0.0316 µM, first compound 0.1 µM
[3] = second compound 0.0316 µM, first compound 0.316 µM
[4] = second compound 0.0316 µM, first compound 1 µM
[5] = second compound 0.0316 µM, first compound 3.16 µM
[6] = second compound 0.0316 µM, first compound 10 µM
[7] = second compound 0.1 µM, first compound 0.0316 µM
[8] = second compound 0.1 µM, first compound 0.1 µM
[9] = second compound 0.1 µM, first compound 0.316 µM
[10] = second compound 0.1 µM, first compound 1 µM
[11] = second compound 0.1 µM, first compound 3.16 µM
[12] = second compound 0.1 µM, first compound 10 µM
[13] = second compound 0.316 µM, first compound 0.0316 µM
[14] = second compound 0.316 µM, first compound 0.1 µM
[15] = second compound 0.316 µM, first compound 0.316 µM
[16] = second compound 0.316 µM, first compound 1 µM
[17] = second compound 0.316 µM, first compound 3.16 µM
[18] = second compound 0.316 µM, first compound 10 µM
[19] = second compound 1 µM, first compound 0.0316 µM
[20] = second compound 1 µM, first compound 0.1 µM
[21] = second compound 1 µM, first compound 0.316 µM
[22] = second compound 1 µM, first compound 1 µM
[23] = second compound 1 µM, first compound 3.16 µM
[24] = second compound 1 µM, first compound 10 µM
[25] = second compound 3.16 µM, first compound 0.0316 µM
[26] = second compound 3.16 µM, first compound 0.1 µM
[27] = second compound 3.16 µM, first compound 0.316 µM
[28] = second compound 3.16 µM, first compound 1 µM
[29] = second compound 3.16 µM, first compound 3.16 µM
[30] = second compound 3.16 µM, first compound 10 µM
[31] = second compound 10 µM, first compound 0.0316 µM
[32] = second compound 10 µM, first compound 0.1 µM
[33] = second compound 10 µM, first compound 0.316 µM
[34] = second compound 10 µM, first compound 1 µM
[35] = second compound 10 µM, first compound 3.16 µM
[36] = second compound 10 µM, first compound 10 µM
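Also: spheroids exposed to agents for seven days before the viability read.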

C=CC(=O)N1CCN(c2nc(=O)n(-c3c(C)ccnc3C(C)C)c3nc(-c4c(O)cccc4F)c(F)cc23)C(C)C1 (centres undefined) + Cc1nc(NC(=O)N2CCCC2C(N)=O)sc1-c1ccnc(C(C)(C)C(F)(F)F)c1
< 0.0316 µM: IC50 (second compound 10 µM)
inactive: viability, T/C [1] 100% | viability, T/C [2] 90.5% | viability, T/C [3] 96.2% | viability, T/C [4] 87.7% | viability, T/C [5] 113% | viability, T/C [6] 92.5% | viability, T/C [7] 118% | viability, T/C [8] 100% | viability, T/C [9] 97.2% | viability, T/C [10] 96.7% | viability, T/C [11] 110% | viability, T/C [12] 105% | viability, T/C [13] 90.5% | viability, T/C [14] 99.2% | viability, T/C [15] 92.1% | viability, T/C [16] 90.6% | viability, T/C [17] 105% | viability, T/C [18] 97.6% | viability, T/C [19] 72.6% | viability, T/C [20] 77.8% | viability, T/C [21] 84.1% | viability, T/C [22] 105% | viability, T/C [23] 88% | viability, T/C [24] 89.4% | viability, T/C [25] 57.8% | viability, T/C [26] 65.8% | viability, T/C [27] 71.8% | viability, T/C [28] 72.2% | viability, T/C [29] 90.7% | viability, T/C [30] 60.2% | viability, T/C [31] 36.8% | viability, T/C [32] 36.5% | viability, T/C [33] 33.7% | viability, T/C [34] 46.4% | viability, T/C [35] 43.8% | viability, T/C [36] 29.5%
> 10 µM: IC50 (second compound 0.0316 µM) | IC50 (second compound 0.1 µM) | IC50 (second compound 0.316 µM) | IC50 (second compound 1 µM) | IC50 (second compound 3.16 µM)

CC(Cn1ccc(-c2ccc(C#N)c(Cl)c2)n1)NC(=O)c1cc(C(C)O)[nH]n1 (centres undefined) + Cc1nc(NC(=O)N2CCCC2C(N)=O)sc1-c1ccnc(C(C)(C)C(F)(F)F)c1
inactive: viability, T/C [1] 109% | viability, T/C [2] 88.7% | viability, T/C [3] 96% | viability, T/C [4] 83.6% | viability, T/C [5] 97.4% | viability, T/C [6] 71.6% | viability, T/C [7] 106% | viability, T/C [8] 93% | viability, T/C [9] 97.8% | viability, T/C [10] 85.6% | viability, T/C [11] 91.1% | viability, T/C [12] 82% | viability, T/C [13] 88.8% | viability, T/C [14] 91.8% | viability, T/C [15] 81% | viability, T/C [16] 102% | viability, T/C [17] 81.2% | viability, T/C [18] 67.6% | viability, T/C [19] 74.2% | viability, T/C [20] 66% | viability, T/C [21] 83% | viability, T/C [22] 82.3% | viability, T/C [23] 83.3% | viability, T/C [24] 61.9% | viability, T/C [25] 62.4% | viability, T/C [26] 61.1% | viability, T/C [27] 60.5% | viability, T/C [28] 71.8% | viability, T/C [29] 71.3% | viability, T/C [30] 57% | viability, T/C [31] 43.6% | viability, T/C [32] 33.7% | viability, T/C [33] 39.9% | viability, T/C [34] 44.4% | viability, T/C [35] 45.5% | viability, T/C [36] 37.1%
> 10 µM: IC50 (second compound 0.0316 µM) | IC50 (second compound 0.1 µM) | IC50 (second compound 0.316 µM) | IC50 (second compound 1 µM) | IC50 (second compound 3.16 µM)
< 0.0316 µM: IC50 (second compound 10 µM)
